Measured values reported in ChEMBL document CHEMBL5038640, “Natural Berberine-derived Azolyl Ethanols as New Structural Antibacterial Agents against Drug-Resistant Escherichia coli” (J Med Chem, 2022).

Experiments:
Enterococcus faecalis = assay: Antibacterial activity against Enterococcus faecalis assessed as decrease in bacterial growth incubated for 18 hrs by broth microdilution method; assay type: functional
Staphylococcus aureus [1] = assay: Antibacterial activity against methicillin-resistant Staphylococcus aureus N315 assessed as decrease in bacterial growth incubated for 18 hrs by broth microdilution method; assay type: functional
Staphylococcus aureus [2] = assay: Antibacterial activity against Staphylococcus aureus ATCC 29213 assessed as decrease in bacterial growth incubated for 18 hrs by broth microdilution method; assay type: functional
[3] = Aqueous solubility of the compound in saline; assay type: physicochemical
Escherichia coli [4] = assay: Antibacterial activity against Escherichia coli assessed as decrease in bacterial growth incubated for 18 hrs by broth microdilution method; assay type: functional
Acinetobacter baumannii = assay: Antibacterial activity against Acinetobacter baumannii assessed as decrease in bacterial growth incubated for 18 hrs by broth microdilution method; assay type: functional
Staphylococcus aureus [5] = assay: Antibacterial activity against Staphylococcus aureus assessed as decrease in bacterial growth incubated for 18 hrs by broth microdilution method; assay type: functional
Pseudomonas aeruginosa [6] = assay: Antibacterial activity against Pseudomonas aeruginosa ATCC 27853 assessed as decrease in bacterial growth incubated for 18 hrs by broth microdilution method; assay type: functional
Escherichia coli [7] = assay: Antibacterial activity against Escherichia coli ATCC 25922 assessed as decrease in bacterial growth incubated for 18 hrs by broth microdilution method; assay type: functional
Pseudomonas aeruginosa [8] = assay: Antibacterial activity against Pseudomonas aeruginosa assessed as decrease in bacterial growth incubated for 18 hrs by broth microdilution method; assay type: functional
Klebsiella pneumoniae = assay: Antibacterial activity against Klebsiella pneumoniae assessed as decrease in bacterial growth incubated for 18 hrs by broth microdilution method; assay type: functional
Staphylococcus aureus [9] = assay: Antibacterial activity against Staphylococcus aureus ATCC 25923 assessed as decrease in bacterial growth incubated for 18 hrs by broth microdilution method; assay type: functional

SMILES	MIC (Enterococcus faecalis)	MIC (Staphylococcus aureus [1])	MIC (Staphylococcus aureus [2])	solubility [3]	MIC (Escherichia coli [4])	MIC (Acinetobacter baumannii)	MIC (Staphylococcus aureus [5])	MIC (Pseudomonas aeruginosa [6])	MIC (Escherichia coli [7])	MIC (Pseudomonas aeruginosa [8])	MIC (Klebsiella pneumoniae)	MIC (Staphylococcus aureus [9])
COc1ccc2cc3[n+](cc2c1OCC(O)Cn1nnnc1C)CCc1cc2c(cc1-3)OCO2.[Br-] (stereo not given)	121 µM	121 µM	61 µM	2150 µM	121 µM	121 µM	121 µM	121 µM	121 µM	121 µM	121 µM	61 µM
COc1ccc2cc3[n+](cc2c1OCC(O)Cn1ccnc1-c1ccccc1)CCc1cc2c(cc1-3)OCO2.[Br-] (stereo not given)	106 µM	7 µM	53 µM	701 µM	27 µM	27 µM	106 µM	106 µM	106 µM	106 µM	53 µM	53 µM
COc1ccc2cc3[n+](cc2c1OCC(O)Cn1cc(C=O)c2ccccc21)CCc1cc2c(cc1-3)OCO2.[Br-] (stereo not given)	53 µM	106 µM	53 µM	790 µM	53 µM	106 µM	53 µM	27 µM	53 µM	106 µM	106 µM	53 µM
CCN(CC)CC(O)COc1c(OC)ccc2cc3[n+](cc12)CCc1cc2c(cc1-3)OCO2.[Br-] (stereo not given)	120 µM	60 µM	60 µM	3320 µM	241 µM	60 µM	60 µM	60 µM	120 µM	60 µM	241 µM	120 µM
COc1ccc2cc3[n+](cc2c1OCC(O)CSc1nnnn1C)CCc1cc2c(cc1-3)OCO2.[Br-] (stereo not given)	56 µM	56 µM	111 µM	992 µM	28 µM	56 µM	111 µM	111 µM	111 µM	111 µM	111 µM	56 µM
COc1ccc2cc3[n+](cc2c1OCC(O)Cn1cnc2cc([N+](=O)[O-])ccc21)CCc1cc2c(cc1-3)OCO2.[Br-] (stereo not given)	51 µM	103 µM	51 µM	895 µM	51 µM	103 µM	103 µM	26 µM	103 µM	103 µM	103 µM	26 µM
COc1ccc2cc3[n+](cc2c1OCC(O)CSc1nnc(C)s1)CCc1cc2c(cc1-3)OCO2.[Br-] (stereo not given)	108 µM	108 µM	108 µM	1180 µM	108 µM	108 µM	108 µM	108 µM	108 µM	108 µM	108 µM	108 µM
COc1ccc2cc3[n+](cc2c1OCC(O)CN(CCO)CCO)CCc1cc2c(cc1-3)OCO2.[Br-] (stereo not given)	114 µM	57 µM	28 µM	4240 µM	114 µM	114 µM	14 µM	114 µM	114 µM	114 µM	227 µM	227 µM
COc1ccc2cc3[n+](cc2c1OCC(O)Cn1cnc([N+](=O)[O-])c1)CCc1cc2c(cc1-3)OCO2.[Br-] (stereo not given)	112 µM	56 µM	56 µM	936 µM	28 µM	112 µM	112 µM	56 µM	112 µM	112 µM	56 µM	112 µM
COc1ccc2cc3[n+](cc2c1OCC(O)CSc1nc[nH]n1)CCc1cc2c(cc1-3)OCO2.[Br-] (stereo not given)	114 µM	57 µM	114 µM	801 µM	57 µM	114 µM	114 µM	114 µM	114 µM	114 µM	57 µM	114 µM
